Assay results taken from publication PMC10322702 (Nature Chemistry, 2023).
Several values for one entry are separate records, joined by “and”; a condition that tells them apart may be missing. Identical values can stand only once. Numbered stars: 1 amine (or outer) side, 2 acyl side, 3 side chain; on linkers, the order of the positions; unused ones are H or OH. Bridge positions count the residues as written; N and C are the ends. Square brackets hold non-standard residues; d marks the D form. Peptide text beside a SMILES is read from it. Acbc(cis-1,3) = O=C([C@H]1C[C@@H](N[*:1])C1)[*:2]

How the values were obtained:
[1] = Cytotoxicity of GM4 and related macrocycles; assay type: cell-based; settings: at concentrations as high as 100 µM
[2] = Serum stability assay in human serum (LC/MS)
M^pro = M^pro (Severe acute respiratory syndrome coronavirus 2, UniProt P0DTD1); assay type: biochemical, SARS-CoV-2
SARS-CoV-2 M^pro [3] = target: T1, SARS-CoV-2 M^pro (Severe acute respiratory syndrome coronavirus 2, UniProt P0DTD1); experiment: biochemical; assay type: biochemical
SARS-CoV-2 M^pro [4] = target: T1, SARS-CoV-2 M^pro; experiment: biochemical; assay type: binding; settings: read-out: ka (kinetic association)
[5] = Antiviral activity in cells of GM4 and related macrocycles; assay type: cell-based

For `CC(C)C[C@@H]1NC(=O)[C@H](CC(N)=O)NC(=O)[C@H](CC(C)C)NC(=O)[C@H]2C[C@H](C2)NC(=O)[C@H](Cc2c[nH]cn2)NC(=O)[C@H](Cc2ccccc2)NC(=O)[C@@H](Cc2ccc(O)cc2)NC(=O)CSC[C@H](C(N)=O)NC(=O)CNC(=O)[C@@H]2CCCN2C(=O)[C@H](CCCNC(=N)N)NC(=O)[C@H](Cc2ccc(O)cc2)NC(=O)CNC1=O` [GM4] ({CH2CO}-[dY]FH[Acbc(cis-1,3)]LNLGYRPG[dC]-NH2; thioether N-13), the cytotoxicity [1] was “no cytotoxicity”, the “Remaining peptide (%)” value ([2]; 37 °C, incubation time 1 h, relative to 0 h = 100%, technical replicates, 60 min) was 104.39% and 106.19% and the “Remaining peptide (%)” value ([2]; 37 °C, incubation time 4 h, relative to 0 h = 100%, technical replicates, 240 min) was 95.61% and 97.60%. The “Remaining peptide (%)” value ([2]; 37 °C, incubation time 8 h, relative to 0 h = 100%, technical replicates, 480 min) was 99.57% and 100.45%, the “Remaining peptide (%)” value ([2]; 37 °C, incubation time 24 h, relative to 0 h = 100%, technical replicates, 1440 min) was 95.67% and 101.18% and the “Remaining peptide (%)” value ([2]; 37 °C, incubation time 50 h, relative to 0 h = 100%, technical replicates, 3000 min) was 76.05% and 78.63%. For the same compound, the “Remaining peptide (%)” value ([2]; 37 °C, incubation time 100 h, relative to 0 h = 100%, technical replicates, 6000 min) was 55.56% and 56.89%, the “fold increase in serum (proteolytic) stability compared to alanine-substituted variant” value ([2]; GM4 vs GM4γ^14A) was 12 fold and the half-life at 10 μM ([2]; human) was 126 h. The remaining at 1 h, 10 μM ([2]; human, Remaining peptide (%), 37 °C, incubation time 1 h, relative to 0 h = 100%, technical replicates) was 104%, the remaining at 4 h, 10 μM ([2]; human, Remaining peptide (%), 37 °C, incubation time 4 h, relative to 0 h = 100%, technical replicates) was 95.7% and the remaining at 8 h, 10 μM ([2]; human, Remaining peptide (%), 37 °C, incubation time 8 h, relative to 0 h = 100%, technical replicates) was 97.7%. The remaining at 24 h, 10 μM ([2]; human, Remaining peptide (%), 37 °C, incubation time 24 h, relative to 0 h = 100%, technical replicates) was 82.2%, the remaining at 50 h, 10 μM ([2]; human, Remaining peptide (%), 37 °C, incubation time 50 h, relative to 0 h = 100%, technical replicates) was 67.9% and the remaining at 100 h, 10 μM ([2]; human, Remaining peptide (%), 37 °C, incubation time 100 h, relative to 0 h = 100%, technical replicates) was 55.7%. The “hydrolysis of the peptide by M^pro” value (M^pro) was “lack of efficient GM4 hydrolysis”, the IC50 (SARS-CoV-2 M^pro [3]) was 0.05 µM and the inhibition at 0.102 µM (SARS-CoV-2 M^pro [3]) was 84.7%. For the same compound, the inhibition at 0.309 µM (SARS-CoV-2 M^pro [3]) was 97.9%, the inhibition at 0.933 µM (SARS-CoV-2 M^pro [3]) was 100% and the inhibition at 2.75 µM (SARS-CoV-2 M^pro [3]) was 100%. For the same compound, the inhibition at 8.32 µM (SARS-CoV-2 M^pro [3]) was 100%, the kon (SARS-CoV-2 M^pro [4]) was 100000 M⁻¹ s⁻¹ and the “antiviral activity in cells” value [5] was “do not manifest obvious antiviral activity”.
